From US20240298643A1, “BENZIMIDAZOLE COMPOUND OR SALT THEREOF, PREPARATION METHOD THEREFOR AND USE THEREOF, AND INSECTICIDE AND ACARICIDE AND USE THEREOF” (QINGDAO KANGQIAO PESTICIDES AND CHEMICALS GROUP CO., LTD., priority 2021, published 2024) come the findings set out here.

This assay concerns Tetranychus cinnabarinus. Briefly: acaricidal activity test, spraying kidney bean seedlings inoculated with mites. The class given is in vivo. The conditions noted are these: sprayed on kidney bean seedlings, living mites counted after 72 hours, 25° C. The method, then:
This test example tested the acaricidal activity of the compounds prepared above, in particular against Tetranychus cinnabarinus, and a specific test process was as follows: • (1) compounds to be tested were dissolved with acetone, and the resulting solution was diluted with a 0.1 wt % Tween 80 aqueous solution to a desired concentration (see test examples 1-A to 1-D below in detail) to prepare medicaments, with the acetone content of not more than 5 wt %; • (2) one real leaf was removed from kidney bean seedlings grown to two real leaves, and the number of mites inoculated was investigated 24 hours after inoculation of Tetranychus cinnabarinus (the number of Tetranychus cinnabarinus inoculated for each kidney bean seedling was 50-150). The whole plants of three kidney bean seedlings were separately sprayed with the medicaments prepared in the step (1) by using a hand-held sprayer (the spray amount was 0.5 mL per plant). After the treatment, the kidney bean seedlings were placed in a constant temperature observation room (25° C.) for observation, the number of living mites was investigated after 72 hours, and the lethality was calculated: Lethality (%)=(the number of mites inoculated−the number of living mites after the medicaments are sprayed)/the number of mites inoculated×100.

As for `CCS(=O)(=O)n1c(-c2cc(Br)cc(OC(F)(F)F)c2)nc2ccccc21` [Compound 1-186], the Lethality is listed as 100% (6.25 mg/L), 100% (25 mg/L) and 100% (100 mg/L).
As for `CCCCS(=O)(=O)n1c(-c2cc(C(F)(F)F)cc(C(F)(F)F)c2)nc2ccccc21` [Compound 1-255], the Lethality is recorded as 91% (6.25 mg/L), 100% (25 mg/L) and 100% (100 mg/L).
Regarding `CCS(=O)(=O)n1c(-c2cc(Br)cc(C(F)(F)F)c2)nc2ccccc21` [Compound 1-214], the Lethality is, setting by setting: (6.25 mg/L) 97%; (25 mg/L) 100%; (100 mg/L) 100%.
With `CCS(=O)(=O)n1c(-c2cc(C(F)(F)F)cc(C(F)(F)F)c2)nc2cc(Cl)c(Cl)cc21` [Compound 1-265], the Lethality runs as follows: (6.25 mg/L) 100%; (25 mg/L) 100%; (100 mg/L) 100%.
In the case of `CCS(=O)(=O)n1c(-c2ccccc2F)nc2ccccc21` [KC2, reference compound], the Lethality came to 49% (25 mg/L) and 98% (100 mg/L).
Consider `CCS(=O)(=O)n1c(-c2ccc(Cl)c(C(F)(F)F)c2)nc2cc(F)c(F)cc21` [Compound 1-57], for which the Lethality (6.25 mg/L) amounted to 92%, the Lethality (25 mg/L) was 100% and the Lethality (100 mg/L) is reported as 100%.
Take `CCCS(=O)(=O)n1c(-c2cc(C(F)(F)F)cc(C(F)(F)F)c2)nc2ccccc21` [Compound 1-254]: the Lethality is recorded as 97% (6.25 mg/L), 100% (25 mg/L) and 100% (100 mg/L).
Turning to `CCS(=O)(=O)n1c(-c2cc(Cl)cc(Cl)c2)nc2ccccc21` [KC6, reference compound], the Lethality runs as follows: (25 mg/L) 86%; (100 mg/L) 100%.
Consider `CCS(=O)(=O)n1c(-c2cc(Cl)cc(C(F)(F)F)c2)nc2ccccc21` [Compound 1-213], for which the Lethality runs as follows: (6.25 mg/L) 99%; (25 mg/L) 100%; (100 mg/L) 100%.
On to `CS(=O)(=O)n1c(-c2cc(Cl)cc(C(F)(F)F)c2)nc2ccccc21` [Compound 1-133], for which the Lethality is, setting by setting: (6.25 mg/L) 99%; (25 mg/L) 100%; (100 mg/L) 100%.
`CCS(=O)(=O)n1c(-c2cc(F)cc(C(F)(F)F)c2)nc2ccccc21` [Compound 1-174]: the Lethality is 98% (6.25 mg/L), 98% (25 mg/L) and 100% (100 mg/L).
On to `CCS(=O)(=O)n1c(-c2cc(C(F)(F)F)cc(C(F)(F)F)c2)nc2cc(F)c(F)cc21` [Compound 1-257], for which the Lethality is on record as 98% (6.25 mg/L), 100% (25 mg/L) and 100% (100 mg/L).
As to `CCS(=O)(=O)n1c(-c2ccccc2)nc2ccccc21` [KC1, reference compound], the Lethality is recorded as 52% (25 mg/L) and 82% (100 mg/L).
Take `CCS(=O)(=O)n1c(-c2ccc(Cl)cc2)nc2ccccc21` [KC4, reference compound]: the Lethality runs as follows: (25 mg/L) 57%; (100 mg/L) 37%.
On the same counts, the results for `CCS(=O)(=O)n1c(-c2ccccc2Cl)nc2ccccc21` [KC3, reference compound] are 70% and 88%.
As for `CCS(=O)(=O)n1c(-c2ccc(F)c(C(F)(F)F)c2)nc2ccccc21` [Compound 1-27], the Lethality is given as 90% (6.25 mg/L), 100% (25 mg/L) and 100% (100 mg/L).
Turning to `CCS(=O)(=O)n1c(-c2cc(Cl)cc(OC(F)(F)F)c2)nc2ccccc21` [Compound 1-239], the Lethality runs as follows: (6.25 mg/L) 100%; (25 mg/L) 100%; (100 mg/L) 100%.
As for `CCS(=O)(=O)n1c(-c2cc([N+](=O)[O-])cc(C(F)(F)F)c2)nc2ccccc21` [Compound 1-235], the Lethality (6.25 mg/L) turned out to be 99%, the Lethality (25 mg/L) is recorded as 99% and the Lethality (100 mg/L) amounted to 100%.
For the compound `CCS(=O)(=O)n1c(-c2cc(C#N)cc(C(F)(F)F)c2)nc2ccccc21` [Compound 1-218], the Lethality runs as follows: (6.25 mg/L) 98%; (25 mg/L) 99%; (100 mg/L) 100%.
The matching figures for `CCS(=O)(=O)n1c(-c2ccc(Cl)c(C(F)(F)F)c2)nc2ccccc21` [Compound 1-28]: 97%, 100% and 100%.
On the same counts, the results for `CCS(=O)(=O)n1c(-c2cc(C(F)(F)F)cc(C(F)(F)F)c2)nc2ccccc21` [Compound 1-47] are 99%, 100% and 100%.
With `CCS(=O)(=O)n1c(-c2ccc(F)cc2)nc2ccccc21` [KC5, reference compound], the Lethality was determined as 40% (25 mg/L) and 66% (100 mg/L).
For the compound `CCS(=O)(=O)n1c(-c2ccc(F)c(C(F)(F)F)c2)nc2cc(F)c(F)cc21` [Compound 1-56], the Lethality by setting is: (6.25 mg/L) 95%; (25 mg/L) 100%; (100 mg/L) 100%.
